Source: patent US10604526B2, “Chemokine receptor modulators and uses thereof” (RAPT THERAPEUTICS, INC., priority 2016, dated 2020)

molecular target: T1, hCCR4 (Homo sapiens, UniProt P51679); assay: Calcium flux assay; format: cell-based; conditions: Chem5-hCCR4 cells, CCL22 at EC80 of 1.5 nM, FLIPR Calcium 6 dye; read-out: Potency (IC50)
T1 sequence (P51679 1-360): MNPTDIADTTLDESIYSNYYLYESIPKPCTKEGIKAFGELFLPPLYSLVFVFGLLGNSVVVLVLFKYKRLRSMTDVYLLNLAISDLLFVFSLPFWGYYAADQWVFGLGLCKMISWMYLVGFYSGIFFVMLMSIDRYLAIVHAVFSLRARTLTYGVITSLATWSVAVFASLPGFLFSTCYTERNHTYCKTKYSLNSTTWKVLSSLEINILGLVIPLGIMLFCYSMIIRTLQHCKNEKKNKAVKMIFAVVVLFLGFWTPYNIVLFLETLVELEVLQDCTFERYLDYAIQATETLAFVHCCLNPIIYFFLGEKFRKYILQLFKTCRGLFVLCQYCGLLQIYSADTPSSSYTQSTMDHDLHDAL
Protocol: Calcium Flux Assay. Compounds were evaluated in a calcium flux assay substantially performed as follows. Chem5-hCCR4 cells (EMD Millipore, Hayward, Calif.; HTS009C) were cultured under standard conditions and frozen in aliquots of 10×10^6 cells/mL. The day prior to compound testing, a vial was rapidly thawed and pipetted into 20 mL media (DMEM+10% FBS+1% Pen-Strep+1% L-glutamine). Cells were harvested by centrifugation and re-suspended in fresh culture medium. 25 μL of cell suspension was seeded into 384-well plates (Corning, Tewksbury, Mass.; CellBind with black wall/clear bottom). The plates were centrifuged at 300 g for 10 seconds and incubated overnight at 37° C. and 5% CO2. The day of compound testing, media was removed from the plates and 25 μL serum free media was added to each well. Plates were returned to the incubator for 2 h. 25 μL assay buffer (Hank's balanced salt solution+20 mM HEPES pH 7.4) containing FLIPR Calcium 6 dye (Molecular Devices, Sunnyvale, Calif.; # R8191) and probenecid (2.5 mM) was added to each well and incubated at 37° C. and 5% CO2 for 2 h. Compounds in DMSO were added to the plates using an HP D300e digital dispenser, and all wells were normalized to contain 0.25 μL (0.5%) DMSO. Plates were incubated for 1 hour at 37° C. and 5% CO2. CCL22 (Peprotech; Rockyhill, N.J.) was diluted in assay buffer containing 0.1% BSA to 7.5 nM (corresponding to 5×EC80 of 1.5 nM).
Assay plates and working solution of CCL22 were transferred to the FlexStation plate reader (Molecular Devices) at 37° C. for 5 min of equilibration. Fluorescence recordings at 485 excitation/525 emission were performed at 2.5 second intervals. At t=16 seconds, 12.5 μL of CCL22 solution was added to each well and reads continued for 30 seconds at 2.5 second intervals. The minimum fluorescence (Fmin) was calculated by averaging the reads prior to ligand addition and the change in fluorescence (ΔF) was calculated by subtracting the Fmin from the average of the reads following ligand addition. The response ΔF/Fmin was plotted as a function of the compound concentration and the IC50 values were determined by non-linear regression analysis using a 4-parameter fit in either PRISM software (GraphPad; La Jolla, Calif.) or Dotmatics Browser.

IC50 | Structure (SMILES)
100 to 500 nM | C[C@H](c1ccc(Cl)cc1Cl)n1nc(C(F)(F)F)c2ncc(N3CC(C4CCCN(CCO)C4)C3)nc21 (mixture of isomers) [Example 42, 2-((R)-3-(1-(1-((R)-1-(2,4-Dichlorophenyl)ethyl)-3-(trifluoromethyl)-1H-pyrazolo[3,4-b]pyrazin-6-yl)azetidin-3-yl)piperidin-1-yl)ethan-1-ol and 2-((S)-3-(1-(1-((R)-1-(2,4-dichlorophenyl)ethyl)-3-(trifluoromethyl)-1H-pyrazolo[3,4-b]pyrazin-6-yl)azetidin-3-yl)piperidin-1-yl)ethan-1-ol]
100 to 500 nM | CC(=O)NCCN1CCCC(C2CN(c3cnc4c(C(F)(F)F)nn([C@H](C)c5ccc(Cl)cc5Cl)c4n3)C2)C1 (mixture of isomers) [Example 45, N-(2-((R)-3-(1-(1-((R)-1-(2,4-Dichlorophenyl)ethyl)-3-(trifluoromethyl)-1H-pyrazolo[3,4-b]pyrazin-6-yl)azetidin-3-yl)piperidin-1-yl)ethyl)acetamide and N-(2-((S)-3-(1-(1-((R)-1-(2,4-dichlorophenyl)ethyl)-3-(trifluoromethyl)-1H-pyrazolo[3,4-b]pyrazin-6-yl)azetidin-3-yl)piperidin-1-yl)ethyl)acetamide]
100 to 500 nM | C[C@H](c1ccc(Cl)cc1Cl)n1nc(C(F)(F)F)c2ncc(N3CC(C4CCCN(CCNS(C)(=O)=O)C4)C3)nc21 (mixture of isomers) [Example 46, N-(2-((R)-3-(1-(1-((R)-1-(2,4-Dichlorophenyl)ethyl)-3-(trifluoromethyl)-1H-pyrazolo[3,4-b]pyrazin-6-yl)azetidin-3-yl)piperidin-1-yl)ethyl)methanesulfonamide and N-(2-((S)-3-(1-(1-((R)-1-(2,4-dichlorophenyl)ethyl)-3-(trifluoromethyl)-1H-pyrazolo[3,4-b]pyrazin-6-yl)azetidin-3-yl)piperidin-1-yl)ethyl)methanesulfonamide]
< 100 nM | CC(C)S(=O)(=O)NCCN1CCCC(C2CN(c3cnc4c(C(F)(F)F)nn([C@H](C)c5ccc(Cl)cc5Cl)c4n3)C2)C1 (mixture of isomers) [Example 47, N-(2-((R)-3-(1-(1-((R)-1-(2,4-Dichlorophenyl)ethyl)-3-(trifluoromethyl)-1H-pyrazolo[3,4-b]pyrazin-6-yl)azetidin-3-yl)piperidin-1-yl)ethyl)propane-2-sulfonamide and N-(2-((S)-3-(1-(1-((R)-1-(2,4-dichlorophenyl)ethyl)-3-(trifluoromethyl)-1H-pyrazolo[3,4-b]pyrazin-6-yl)azetidin-3-yl)piperidin-1-yl)ethyl)propane-2-sulfonamide]
< 100 nM | CC(C)C(=O)NCCN1CCCC(C2CN(c3cnc4c(C(F)(F)F)nn([C@H](C)c5ccc(Cl)cc5Cl)c4n3)C2)C1 (mixture of isomers) [Example 48, N-(2-((R)-3-(1-(1-((R)-1-(2,4-Dichlorophenyl)ethyl)-3-(trifluoromethyl)-1H-pyrazolo[3,4-b]pyrazin-6-yl)azetidin-3-yl)piperidin-1-yl)ethyl)isobutyramide and N-(2-((S)-3-(1-(1-((R)-1-(2,4-dichlorophenyl)ethyl)-3-(trifluoromethyl)-1H-pyrazolo[3,4-b]pyrazin-6-yl)azetidin-3-yl)piperidin-1-yl)ethyl)isobutyramide]
< 100 nM | COC(=O)NCCN1CCCC(C2CN(c3cnc4c(C(F)(F)F)nn([C@H](C)c5ccc(Cl)cc5Cl)c4n3)C2)C1 (mixture of isomers) [Example 49, Methyl (2-((R)-3-(1-(1-((R)-1-(2,4-dichlorophenyl)ethyl)-3-(trifluoromethyl)-1H-pyrazolo[3,4-b]pyrazin-6-yl)azetidin-3-yl)piperidin-1-yl)ethyl)carbamate and methyl (2-((S)-3-(1-(1-((R)-1-(2,4-dichlorophenyl)ethyl)-3-(trifluoromethyl)-1H-pyrazolo[3,4-b]pyrazin-6-yl)azetidin-3-yl)piperidin-1-yl)ethyl)carbamate]
< 100 nM | C[C@H](c1ccc(Cl)cc1Cl)n1nc(C(F)(F)F)c2ncc(N3CC(C4CCCN(CCCS(C)(=O)=O)C4)C3)nc21 (mixture of isomers) [Example 50, 1-((R)-1-(2,4-Dichlorophenyl)ethyl)-6-(3-((R)-1-(3-(methylsulfonyl)propyl)piperidin-3-yl)azetidin-1-yl)-3-(trifluoromethyl)-1H-pyrazolo[3,4-b]pyrazine and 1-((R)-1-(2,4-dichlorophenyl)ethyl)-6-(3-((S)-1-(3-(methylsulfonyl)propyl)piperidin-3-yl)azetidin-1-yl)-3-(trifluoromethyl)-1H-pyrazolo[3,4-b]pyrazine]
< 100 nM | C[C@H](c1ccc(Cl)cc1Cl)n1nc(C#N)c2ncc(N3CC(C4CCCN(CCCC(C)(C)O)C4)C3)nc21 (mixture of isomers) [Example 56, 1-((R)-1-(2,4-dichlorophenyl)ethyl)-6-(3-((S)-1-(4-hydroxy-4-methylpentyl)piperidin-3-yl)azetidin-1-yl)-1H-pyrazolo[3,4-b]pyrazine-3-carbonitrile and 1-((R)-1-(2,4-dichlorophenyl)ethyl)-6-(3-((R)-1-(4-hydroxy-4-methylpentyl)piperidin-3-yl)azetidin-1-yl)-1H-pyrazolo[3,4-b]pyrazine-3-carbonitrile]
< 100 nM | CNS(=O)(=O)CCN1CCCC(C2CN(c3cnc4c(C#N)nn([C@H](C)c5ccc(Cl)cc5Cl)c4n3)C2)C1 (mixture of isomers) [Example 57, 2-(S)-3-(1-(3-cyano-1-((R)-1-(2,4-dichlorophenyl)ethyl)-1H-pyrazolo[3,4-b]pyrazin-6-yl)azetidin-3-yl)piperidin-1-yl)-N-methylethane-1-sulfonamide and 2-((R)-3-(1-(3-cyano-1-((R)-1-(2,4-dichlorophenyl)ethyl)-1H-pyrazolo[3,4-b]pyrazin-6-yl)azetidin-3-yl)piperidin-1-yl)-N-methylethane-1-sulfonamide]
100 to 500 nM | C[C@H](c1ccc(Cl)cc1Cl)n1nc(C#N)c2ncc(N3CC(C4CCCN(CCS(=O)(=O)N5CCOCC5)C4)C3)nc21 (mixture of isomers) [Example 58, 1-((R)-1-(2,4-dichlorophenyl)ethyl)-6-(3-((S)-1-(2-(morpholinosulfonyl)ethyl)piperidin-3-yl)azetidin-1-yl)-1H-pyrazolo[3,4-b]pyrazine-3-carbonitrile and 1-((R)-1-(2,4-dichlorophenyl)ethyl)-6-(3-((R)-1-(2-(morpholinosulfonyl)ethyl)piperidin-3-yl)azetidin-1-yl)-1H-pyrazolo[3,4-b]pyrazine-3-carbonitrile]
< 100 nM | C[C@H](c1ccc(Cl)cc1Cl)n1nc(C#N)c2ncc(N3CC(C4CCCN(Cc5cc[nH]n5)C4)C3)nc21 (mixture of isomers) [Example 59, 6-(3-((S)-1-((1H-pyrazol-3-yl)methyl)piperidin-3-yl)azetidin-1-yl)-1-((R)-1-(2,4-dichlorophenyl)ethyl)-1H-pyrazolo[3,4-b]pyrazine-3-carbonitrile and 6-(3-((R)-1-((1H-pyrazol-3-yl)methyl)piperidin-3-yl)azetidin-1-yl)-1-((R)-1-(2,4-dichlorophenyl)ethyl)-1H-pyrazolo[3,4-b]pyrazine-3-carbonitrile]
< 100 nM | C[C@H](c1ccc(Cl)cc1Cl)n1nc(C#N)c2ncc(N3CC(C4CCCN(Cc5c[nH]cn5)C4)C3)nc21 (mixture of isomers) [Example 60, 6-(3-((S)-1-(1H-imidazol-4-yl)methyl)piperidin-3-yl)azetidin-1-yl)-1-((R)-1-(2,4-dichlorophenyl)ethyl)-1H-pyrazolo[3,4-b]pyrazine-3-carbonitrile and 6-(3-((R)-1-((1H-imidazol-4-yl)methyl)piperidin-3-yl)azetidin-1-yl)-1-((R)-1-(2,4-dichlorophenyl)ethyl)-1H-pyrazolo[3,4-b]pyrazine-3-carbonitrile]
